Test results reported in article PMC8070968, “The Alteration of L-Carnitine Transport and Pretreatment Effect under Glutamate Cytotoxicity on Motor Neuron-Like NSC-34 Lines” (Pharmaceutics, 2021).

Legend:
OCTN2/slc22a5 = target: T1, OCTN2/slc22a5 (Mus musculus, UniProt Q9Z0E8); experiment: [3H]L-carnitine uptake in NSC-34 cells with mOCTN2 siRNA knockdown; type: cell-based
T1 sequence (Q9Z0E8 1-557): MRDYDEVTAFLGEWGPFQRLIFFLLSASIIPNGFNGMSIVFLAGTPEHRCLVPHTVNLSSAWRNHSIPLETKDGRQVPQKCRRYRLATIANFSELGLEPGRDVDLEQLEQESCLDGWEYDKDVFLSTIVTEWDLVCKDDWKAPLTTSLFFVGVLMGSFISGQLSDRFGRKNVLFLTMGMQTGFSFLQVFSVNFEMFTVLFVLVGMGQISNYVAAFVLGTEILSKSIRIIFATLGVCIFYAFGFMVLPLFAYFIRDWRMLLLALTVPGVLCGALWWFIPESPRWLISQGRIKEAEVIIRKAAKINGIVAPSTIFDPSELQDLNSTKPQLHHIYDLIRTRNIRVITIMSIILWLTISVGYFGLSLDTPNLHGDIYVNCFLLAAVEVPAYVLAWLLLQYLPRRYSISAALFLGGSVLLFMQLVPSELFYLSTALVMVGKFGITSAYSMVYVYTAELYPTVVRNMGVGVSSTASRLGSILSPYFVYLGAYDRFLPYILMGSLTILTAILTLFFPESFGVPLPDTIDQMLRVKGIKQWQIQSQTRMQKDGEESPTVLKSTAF

OCTN1/slc22a4 = target: T2, OCTN1/slc22a4 (Mus musculus, UniProt Q9Z306); experiment: [3H]L-carnitine uptake in NSC-34 cells with mOCTN1 siRNA knockdown; type: cell-based
T2 sequence (Q9Z306 1-553): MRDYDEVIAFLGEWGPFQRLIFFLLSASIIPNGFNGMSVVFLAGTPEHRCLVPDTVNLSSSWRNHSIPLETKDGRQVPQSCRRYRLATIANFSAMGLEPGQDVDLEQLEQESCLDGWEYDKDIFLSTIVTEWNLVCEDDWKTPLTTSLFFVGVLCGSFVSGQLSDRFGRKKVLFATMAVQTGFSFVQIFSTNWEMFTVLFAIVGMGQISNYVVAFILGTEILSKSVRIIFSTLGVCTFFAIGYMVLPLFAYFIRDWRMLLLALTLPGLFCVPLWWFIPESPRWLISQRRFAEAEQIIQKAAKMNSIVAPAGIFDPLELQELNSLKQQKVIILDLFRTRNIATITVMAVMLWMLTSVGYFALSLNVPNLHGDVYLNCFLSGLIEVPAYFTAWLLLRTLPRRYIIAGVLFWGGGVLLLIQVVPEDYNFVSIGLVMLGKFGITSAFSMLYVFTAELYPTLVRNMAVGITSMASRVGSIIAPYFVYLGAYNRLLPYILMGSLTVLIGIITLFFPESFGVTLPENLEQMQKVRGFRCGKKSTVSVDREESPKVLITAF

C[N+](C)(C)C[C@H](O)CC(=O)[O-] [LC, L-carnitine]
[3H]L-carnitine uptake in NSC-34 cells with mOCTN2 siRNA knockdown (OCTN2/slc22a5): mOCTN1 and mOCTN2 siRNA-transfected NSC-34 cell lines demonstrated a significant decrease in the slc22a4 and slc22a5 gene expression level | [3H]L-carnitine uptake in NSC-34 cells with mOCTN1 siRNA knockdown (OCTN1/slc22a4): OCTN1/slc22a4 and OCTN2/slc22a5 siRNA transfection study revealed both transporters are involved in LC transport in NSC-34 cell lines
